Test results: the NIST ThermoML archive (doi:10.1016/j.jct.2013.01.005)
± gives the expanded uncertainty stated by the source.

Experiment: activity coefficient (dimensionless); of the first substance listed, at infinite dilution; xn = mol fraction of the nth substance listed
Details: 101 kPa, Liquid, Chromatography, x1 = 0

SMILES | activity coefficient (318.15 K) | activity coefficient (328.15 K) | activity coefficient (338.15 K) | activity coefficient (348.15 K) | activity coefficient (358.15 K) | activity coefficient (308.15 K)
CCCCC(C)=O [2-hexanone] + CCCCC[N+]1(C)CCCCC1.O=S(=O)([N-]S(=O)(=O)C(F)(F)F)C(F)(F)F | 0.761 ± 0.05 | 0.779 ± 0.051 | 0.792 ± 0.052 | 0.822 ± 0.053 | 0.84 ± 0.054 | 
CCC(C)(C)OC [2-methoxy-2-methylbutane] + CCCCCC[N+]1(C)CCCCC1.O=S(=O)([N-]S(=O)(=O)C(F)(F)F)C(F)(F)F | 2.14 ± 0.15 | 2.18 ± 0.15 | 2.2 ± 0.15 | 2.22 ± 0.15 | 2.25 ± 0.15 | 2.11 ± 0.14
CCC(C)(C)OC [2-methoxy-2-methylbutane] + CCCCC[N+]1(C)CCCCC1.O=S(=O)([N-]S(=O)(=O)C(F)(F)F)C(F)(F)F | 2.47 ± 0.17 | 2.5 ± 0.17 | 2.53 ± 0.17 | 2.57 ± 0.17 | 2.6 ± 0.18 | 2.44 ± 0.17
COC(C)(C)C [2-methoxy-2-methylpropane] + CCCCCC[N+]1(C)CCCCC1.O=S(=O)([N-]S(=O)(=O)C(F)(F)F)C(F)(F)F | 1.63 ± 0.11 | 1.66 ± 0.11 | 1.7 ± 0.11 | 1.72 ± 0.12 | 1.76 ± 0.12 | 1.59 ± 0.11
COC(C)(C)C [2-methoxy-2-methylpropane] + CCCCC[N+]1(C)CCCCC1.O=S(=O)([N-]S(=O)(=O)C(F)(F)F)C(F)(F)F | 1.85 ± 0.12 | 1.86 ± 0.13 | 1.89 ± 0.13 | 1.94 ± 0.13 | 1.98 ± 0.13 | 1.81 ± 0.12
CC(C)=O [acetone] + CCCCCC[N+]1(C)CCCCC1.O=S(=O)([N-]S(=O)(=O)C(F)(F)F)C(F)(F)F | 0.429 ± 0.035 | 0.436 ± 0.035 | 0.444 ± 0.036 | 0.455 ± 0.036 | 0.46 ± 0.036 | 0.421 ± 0.035
CC(C)=O [acetone] + CCCCC[N+]1(C)CCCCC1.O=S(=O)([N-]S(=O)(=O)C(F)(F)F)C(F)(F)F | 0.426 ± 0.035 | 0.435 ± 0.035 | 0.441 ± 0.035 | 0.456 ± 0.036 | 0.466 ± 0.036 | 0.398 ± 0.034
c1ccccc1 [benzene] + CCCCCC[N+]1(C)CCCCC1.O=S(=O)([N-]S(=O)(=O)C(F)(F)F)C(F)(F)F | 0.687 ± 0.046 | 0.695 ± 0.047 | 0.71 ± 0.047 | 0.722 ± 0.048 | 0.73 ± 0.048 | 0.669 ± 0.045
c1ccccc1 [benzene] + CCCCC[N+]1(C)CCCCC1.O=S(=O)([N-]S(=O)(=O)C(F)(F)F)C(F)(F)F | 0.703 ± 0.047 | 0.712 ± 0.047 | 0.721 ± 0.048 | 0.744 ± 0.049 | 0.753 ± 0.05 | 0.696 ± 0.047
CCCCO [butan-1-ol] + CCCCCC[N+]1(C)CCCCC1.O=S(=O)([N-]S(=O)(=O)C(F)(F)F)C(F)(F)F | 2.13 ± 0.14 | 1.93 ± 0.13 | 1.76 ± 0.12 | 1.64 ± 0.11 | 1.52 ± 0.1 | 2.4 ± 0.16
CCCCO [butan-1-ol] + CCCCC[N+]1(C)CCCCC1.O=S(=O)([N-]S(=O)(=O)C(F)(F)F)C(F)(F)F | 2.16 ± 0.15 | 1.98 ± 0.13 | 1.82 ± 0.12 | 1.71 ± 0.11 | 1.57 ± 0.1 | 2.3 ± 0.16
C1CCCCCC1 [cycloheptane] + CCCCCC[N+]1(C)CCCCC1.O=S(=O)([N-]S(=O)(=O)C(F)(F)F)C(F)(F)F | 6.01 ± 0.41 | 5.77 ± 0.39 | 5.52 ± 0.38 | 5.32 ± 0.36 | 5.08 ± 0.35 | 6.23 ± 0.42
C1CCCCCC1 [cycloheptane] + CCCCC[N+]1(C)CCCCC1.O=S(=O)([N-]S(=O)(=O)C(F)(F)F)C(F)(F)F | 7.49 ± 0.51 | 7.13 ± 0.49 | 6.82 ± 0.46 | 6.54 ± 0.45 | 6.26 ± 0.43 | 7.97 ± 0.54
C1CCCCC1 [cyclohexane] + CCCCCC[N+]1(C)CCCCC1.O=S(=O)([N-]S(=O)(=O)C(F)(F)F)C(F)(F)F | 4.8 ± 0.33 | 4.6 ± 0.31 | 4.43 ± 0.3 | 4.28 ± 0.29 | 4.06 ± 0.28 | 4.99 ± 0.34
C1CCCCC1 [cyclohexane] + CCCCC[N+]1(C)CCCCC1.O=S(=O)([N-]S(=O)(=O)C(F)(F)F)C(F)(F)F | 5.95 ± 0.41 | 5.64 ± 0.38 | 5.42 ± 0.37 | 5.13 ± 0.35 | 4.99 ± 0.34 | 6.4 ± 0.44
C1=CCCCC1 [cyclohexene] + CCCCCC[N+]1(C)CCCCC1.O=S(=O)([N-]S(=O)(=O)C(F)(F)F)C(F)(F)F | 3 ± 0.2 | 2.94 ± 0.2 | 2.88 ± 0.2 | 2.81 ± 0.19 | 2.75 ± 0.19 | 3.07 ± 0.21
C1=CCCCC1 [cyclohexene] + CCCCC[N+]1(C)CCCCC1.O=S(=O)([N-]S(=O)(=O)C(F)(F)F)C(F)(F)F | 3.63 ± 0.25 | 3.53 ± 0.24 | 3.39 ± 0.23 | 3.3 ± 0.22 | 3.21 ± 0.22 | 3.73 ± 0.25
C1CCCCCCC1 [cyclooctane] + CCCCCC[N+]1(C)CCCCC1.O=S(=O)([N-]S(=O)(=O)C(F)(F)F)C(F)(F)F | 7.36 ± 0.5 | 7.15 ± 0.49 | 6.87 ± 0.47 | 6.75 ± 0.46 | 6.53 ± 0.45 | 7.57 ± 0.52
C1CCCCCCC1 [cyclooctane] + CCCCC[N+]1(C)CCCCC1.O=S(=O)([N-]S(=O)(=O)C(F)(F)F)C(F)(F)F | 9.58 ± 0.65 | 9.06 ± 0.62 | 8.6 ± 0.59 | 8.24 ± 0.56 | 7.8 ± 0.53 | 10.1 ± 0.7
C1CCCC1 [cyclopentane] + CCCCCC[N+]1(C)CCCCC1.O=S(=O)([N-]S(=O)(=O)C(F)(F)F)C(F)(F)F | 3.59 ± 0.24 | 3.43 ± 0.23 | 3.34 ± 0.23 | 3.24 ± 0.22 | 3.12 ± 0.21 | 3.72 ± 0.25
C1CCCC1 [cyclopentane] + CCCCC[N+]1(C)CCCCC1.O=S(=O)([N-]S(=O)(=O)C(F)(F)F)C(F)(F)F | 4.5 ± 0.31 | 4.24 ± 0.29 | 3.98 ± 0.27 | 3.82 ± 0.26 | 3.72 ± 0.25 | 4.72 ± 0.32
CCCCCCCCCC [decane] + CCCCCC[N+]1(C)CCCCC1.O=S(=O)([N-]S(=O)(=O)C(F)(F)F)C(F)(F)F | 22.2 ± 1.5 | 21.1 ± 1.4 | 20 ± 1.4 | 19.1 ± 1.3 | 18.3 ± 1.3 | 23.5 ± 1.6
CCCCCCCCCC [decane] + CCCCC[N+]1(C)CCCCC1.O=S(=O)([N-]S(=O)(=O)C(F)(F)F)C(F)(F)F | 29.5 ± 2 | 27.9 ± 1.9 | 26.2 ± 1.8 | 25.1 ± 1.7 | 23.8 ± 1.6 | 31.9 ± 2.2
